Measurements as given in publication PMC7915858, “Complementary Effects of Carbamylated and Citrullinated LL37 in Autoimmunity and Inflammation in Systemic Lupus Erythematosus” (International Journal of Molecular Sciences, 2021).

How the values were obtained:
memory B-cells = conditions: cited from earlier work
Description: LL37 is able to activate innate immune cells and B-cells after forming complexes with nucleic acids in a special molecular conformation, suitable for TLR stimulation. PDCs, as well as B-cells, are both activated by LL37-DNA or LL37-RNA complexes.

[1] = test system: native LL37-P1-specific T-cells (HLA-DRB5*0101 tetramer); assay: Peptide-MHC-tetramer staining of T-cells after PBMC stimulation; type: cell-based, human; conditions: 6 days stimulation, CD38hi CD4 T-cells
Description: Peptide-MHC-tetramers were from ImmunAware (Denmark). Staining was performed for 40 min with 1microL of tetramer suspension at 37 °C, followed by staining for CD4 (4 °C, 20 min), without washing. After incubation with anti-CD4 antibody, cells were washed, resuspended in PBS and kept at 4 °C. Before flow cytometry-acquisition, cells were labeled with PercP-conjugated 7-AAD to exclude dead cells. The peptide-MHC-tetramers used in this study are: the HLA-DR15-P1: tetramer of HLA-DRB1*1501 LLGDFFRKSKEKIGK (corresponding to the first aa at the NH2-term of the mature native LL37), (PE-conjugated) and the control peptide-MHC-tetramer called DR15-ctr: tetramer of HLA-DRB1*1501 […]1-169-185 (PE-conjugated). The other couple of peptide-MHC-tetramers used were HLA-DRB5*0101 loaded with the same LL37 epitope as above and the control tetramer HLA-DRB5*0101 loaded with the control epitope PVSKMRMATPLLMQA (CLIP-derived).

SLE serum antibody = assay: ELISA for antibody reactivity of SLE sera to carb-/cit-/native LL37 and carb-REV, and its correlation with SLEDAI; type: binding, human
Description: Anti-native LL37/cit-LL37/carb-LL37 antibodies were measured as described. Briefly, 96-well flat-bottom plates (Non-Binding surface polystyrene, Corning, Glendale, AZ USA) were coated with 2 μg/mL of native LL37, cit-LL37 or carb-LL37 in carbonate buffer (0.1 M NaHCHO3, pH 9) for 2 h (or overnight) and washed four times with PBS plus 0.1% Tween-20. This washing buffer was used for washing at all steps. The blocking buffer containing 2% bovine serum albumin (BSA, Sigma) in PBS was used for at least 1 h (or overnight) to saturate unspecific binding sites. After washing, sera were diluted at various concentrations (usually at 1:100 or 1:200) in PBS + 2% BSA followed by 1 h incubation with a horseradish peroxidase–conjugated (HRP) goat anti-human IgG (Sigma-Aldrich), diluted 1:10,000 in PBS. The color was developed for 5 min with 3,3′,5,5′-tetramethylbenzidine (TMB) substrate (Sigma-Aldrich). The reaction was stopped by adding 50 μL of 2 N H2SO4 and absorbance determined at 450 nm with a reference wavelength of 540 nm. Responses were considered positive when the OD measured exceeded the mean OD values measured in healthy donors’ plasma plus two standard deviations (+2SD), calculated on the HD group values, as described.
(§1) Differences between mean values were assessed by Wilcoxon’s matched-pair signed rank test, to compare responses to antigens and control antigens in the same donor. We used Mann-Whitney test for comparison of T-cell and antibody responses between groups of patients and HD. Statistical significance was set at p < 0.05. Correlation analyses were performed by Spearman’s rank-correlation test. Data were analyzed by GraphPad Prism 7.0 or SPSS software.

SLE CD4 T-cells = assay: T-cell proliferation (BrdU incorporation, flow cytometry); type: cell-based, human
Description: (§2) PBMCs were purified from EDTA-treated blood, on Ficoll-Hypaque (Pharmacia Fine Chemicals, Uppsala, Sweden) and were incubated (10^5 cells/well) in 96-well-flat-bottom-microplates (BD) in T-cell-medium (RPMI 1640, 10% heat-inactivated human serum, HS, Gibco), 2 mM L-glutamine, 10 U/mL penicillin and 100 μg/mL streptomycin), with/without peptides. We performed assays on fresh cells, within 1-to-3 h from collection or on PBMCs frozen in 90% FCS−10% DMSO, whose viability we assessed by Trypan blue exclusion, with an inverted microscope. Recovery of live cells was between 65 and 85% of the frozen number. At day 3 and 5, BrdU was added (1 μg/mL). BrdU-incorporation was detected by APC-labeled anti-BrdU antibody (BD Pharmingen), after surface staining for CD4, CD3, CD8 and analyzed by flow cytometry (Gallios, BeckmanCoulter, Brea, CA, USA). Internal control for T-cell viability and proliferation was PHA treatment (2 μg/mL). SI for proliferation was calculated by dividing percent of BrdU-staining in the presence of each peptide antigen (LL37, carb-LL37, cit-LL37, LL37 reverse, REV; cit-LL37 reverse, cit-REV; carb-LL37 reverse, carb-REV) by the percent obtained in the untreated cells. SI for proliferation was considered positive when the values of percent of BrdU positive cells was three times higher than the values obtained with the control peptides (SI > 3). Assays were repeated twice with each patient. In rare cases in which background proliferation (culture with REV, cit-REV, carb-REV), exceeded antigen-specific proliferation (that is response to LL37, carb-LL37, cit-LL37), the assay was repeated three times. Concomitant phenotype analysis of LL37-responder T-cells included staining for CD3, CD4, CD8, CXCR5 (CXCR5 was assessed on BrdU/CD3/CD4-positive cells).
as §1

pDCs = assay: IFN-α production by purified pDCs stimulated with peptide-DNA complexes; type: cell-based, human; conditions: peptide without DNA, 24 h, ELISA
Description: Buffy-coats from HD were from Centro Trasfusionale, Policlinico Umberto I, Rome, IT. After separation of mononuclear cells by Ficoll centrifugation, pDCs were purified as described, by using the Diamond Plasmacytoid Dendritic Cell Isolation Kit (Miltenyi Biotec, Bergisch Gladbach, Germany) to obtain 99% purity. Purified pDCs were seeded into 96-well round-bottom plates at 3.5/5 × 10^4 cells per well in 200 μL RPMI 1640 (GIBCO), supplemented with 10% fetal calf serum (FCS), 1% Hepes and 1% sodium pyruvate. LL37, cit-LL37 and carb-LL37 were premixed with total human genomic DNA (extracted from PBMC of HD, see below) (15 μg/mL). After 15 min incubation at room temperature the mix was added to the pDC cultures. IFN-α in supernatants was measured by ELISA (MabTech, Stockholm, Sweden), after 24 h (according to the manufacturer’s instructions).
Human DNA was extracted from PBMCs, as reported and was fragmented by sonication. Five milligrams of DNA in a volume of 300 μL were fragmented using the Sonics Vibra Cell sonicator (Newtown, CT, USA), with the following settings: 2, 4 and 10 sonication cycles (30 s on, 30 s off, in ice) to obtain DNA fragment sizes between 100 and 1000 bp. The resulting size distribution was controlled by 2% agarose gel electrophoresis.

SLE CD4 T-cells (CXCR5) = assay: CXCR5 (TFH marker) expression on stimulated CD4 T-cells, flow cytometry; type: cell-based, human; conditions: representative plot
Description: Antibodies to CD4, CD8, CD3 conjugated with various fluorochromes (FITC, phycoerythrin (PE), peridinin-chlorophyll-protein (PerCp), allophycocyanin (APC), PE-Cy7) were from BD Biosciences or eBiosciences (San Diego, CA). For further LL37-specific T-cell characterization and B-cell characterization we used: APC-Cy7-CXCR5 (FAB190), APC or PE-CD38, CD19, CD20, CD27, antibodies, purchased from BD Biosciences, eBiosciences, Novus Biologicals (Littleton, CO), R&D (Minneapolis, MN). Appropriate isotype-matched controls were purchased from the same companies. PerCp-7-AAD was from BD Pharmingen, DAPI from Invitrogen (Thermo Fisher, Carlsbad, CA, USA).
as §2

Substance | Stimulation of memory B-cells to mature into plasma cells, LL37-DNA complexes (memory B-cells) | Control (Ctr-B5) tetramer positive T-cells ([1]; Ctr-B5 tetr, lower panels Figure S6) | LL37-specific T-cells (LL37-B5 tetramer positive) ([1]; LL37-B5 tetr, upper panels Figure S6) | Antibody reactivity in SLE patients with renal damage versus without renal damage (SLE serum antibody; ELISA, N=6 with and N=44 without renal damage, Mann-Whitney, Figure S3 panel a P 0.047) | Correlation of antibody reactivity with SLEDAI (SLE serum antibody; Spearman) | SLE patients responding by T-cell proliferation (SLE CD4 T-cells; BrdU, positive if SI > 3, carb-LL37 8 of 25, native LL37 17 of 31, cit-LL37 16 of 31 SLE patients) | IFN-α response of pDCs to peptide alone (pDCs) | SLE patients showing an antibody response to the antigen (SLE serum antibody; ELISA, 2 μg/mL coated antigen, sera 1:100 or 1:200, OD 450 nm, positive: OD > mean HD + 2SD, carb-LL37 28 of 45, carb-REV 8 of 47 SLE patients) | SLE serum antibody reactivity (OD) compared to healthy donors (SLE serum antibody; ELISA, OD, Mann-Whitney's test) | BrdU-positive CD3+CD4+ T-cells (SLE CD4 T-cells; BrdU staining, representative zebra plot, Figure S5a) | CXCR5-positive cells among total CD3+CD4+ cells (SLE CD4 T-cells (CXCR5); Figure S5b left panels) | CXCR5-positive cells among CD3+CD4+BrdU+ cells (SLE CD4 T-cells (CXCR5); Figure S5b middle panels) | CXCR5-positive cells among CD3+CD4+BrdU- cells (SLE CD4 T-cells (CXCR5); Figure S5b right panels)
LLGDFFRKSKEKIGKEFKRIVQRIKDFLRNLVPRTES [LL37, mature human cathelicidin antimicrobial peptide, COOH-terminal part (res. 134–170), purchased from Proteogenix] | able to stimulate memory B-cells to mature into plasma cells | 0.2% | 4.27% | non-significant anti-cit- and anti-native-LL37 antibody increase | both responses also correlated with SLEDAI | 55% | no IFN-α response |  |  |  |  |  | 
SETRPVLNRLFDK*IRQVIRKEFEK*GIK*EK*SK*RFFDGLL* [carb-REV, control carbamylated reverse (REV) LL37, reference compound] |  |  |  |  |  |  |  | 17% | also significant, as compared to response of HD but significantly lower than the response to carb-LL37 | 5.35% | 3.28% | 8.76% | 3.26%
